The values that follow come from US20230150974A1 (Foghorn Therapeutics Inc., priority 2020, published 2023).

Where only a bound is given, the exact number is not on record here.

The target of one test is T1, HiBiT-BRM (Homo sapiens, UniProt P51531).
T1 construct: expressed in transfected cells
The experiment in a line: HiBiT-BRM cell-based degradation assay (Nano-Glo HiBiT Lytic Detection). The following applies: HeLa cells expressing HiBiT-BRM, 24 h; for DC50: read-out: BRM HiBit Degradation IC50. An outline of the steps:
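Luminescence from HiBiT–LgBiT complementation in lysates of a stable HiBiT-BRM HeLa line measured after 24 h compound exposure. Degradation expressed as percent relative to DMSO-treated cells and cells given 2 μM of a known BRM/BRG1 degrader.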
(In general: HiBiT is a short tag that completes a luciferase, so light tracks the accessible tagged protein.)

The target in another test is T2, HiBit-BRG1 (Homo sapiens, UniProt P51532).
T2 construct: expressed in transfected cells
In words: HiBit-BRG1 cell-based degradation assay (Nano-Glo HiBiT Lytic Detection). The following applies: HeLa cells expressing HiBit-BRG1 and LgBit, 24 h; for DC50: read-out: BRG1 HiBit Degradation IC50; for Dmax: read-out: BRG1 HiBit Degradation Maximum (%). An outline of the steps:
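HeLa cells stably expressing HiBit-BRG1 plus LgBit; compound exposure 24 h; Nano-Glo HiBiT lytic luminescence; % degradation vs DMSO (0%) and 2 μM standard BRM/BRG1 degrader (100%).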

T1 sequence (P51531 whole entry): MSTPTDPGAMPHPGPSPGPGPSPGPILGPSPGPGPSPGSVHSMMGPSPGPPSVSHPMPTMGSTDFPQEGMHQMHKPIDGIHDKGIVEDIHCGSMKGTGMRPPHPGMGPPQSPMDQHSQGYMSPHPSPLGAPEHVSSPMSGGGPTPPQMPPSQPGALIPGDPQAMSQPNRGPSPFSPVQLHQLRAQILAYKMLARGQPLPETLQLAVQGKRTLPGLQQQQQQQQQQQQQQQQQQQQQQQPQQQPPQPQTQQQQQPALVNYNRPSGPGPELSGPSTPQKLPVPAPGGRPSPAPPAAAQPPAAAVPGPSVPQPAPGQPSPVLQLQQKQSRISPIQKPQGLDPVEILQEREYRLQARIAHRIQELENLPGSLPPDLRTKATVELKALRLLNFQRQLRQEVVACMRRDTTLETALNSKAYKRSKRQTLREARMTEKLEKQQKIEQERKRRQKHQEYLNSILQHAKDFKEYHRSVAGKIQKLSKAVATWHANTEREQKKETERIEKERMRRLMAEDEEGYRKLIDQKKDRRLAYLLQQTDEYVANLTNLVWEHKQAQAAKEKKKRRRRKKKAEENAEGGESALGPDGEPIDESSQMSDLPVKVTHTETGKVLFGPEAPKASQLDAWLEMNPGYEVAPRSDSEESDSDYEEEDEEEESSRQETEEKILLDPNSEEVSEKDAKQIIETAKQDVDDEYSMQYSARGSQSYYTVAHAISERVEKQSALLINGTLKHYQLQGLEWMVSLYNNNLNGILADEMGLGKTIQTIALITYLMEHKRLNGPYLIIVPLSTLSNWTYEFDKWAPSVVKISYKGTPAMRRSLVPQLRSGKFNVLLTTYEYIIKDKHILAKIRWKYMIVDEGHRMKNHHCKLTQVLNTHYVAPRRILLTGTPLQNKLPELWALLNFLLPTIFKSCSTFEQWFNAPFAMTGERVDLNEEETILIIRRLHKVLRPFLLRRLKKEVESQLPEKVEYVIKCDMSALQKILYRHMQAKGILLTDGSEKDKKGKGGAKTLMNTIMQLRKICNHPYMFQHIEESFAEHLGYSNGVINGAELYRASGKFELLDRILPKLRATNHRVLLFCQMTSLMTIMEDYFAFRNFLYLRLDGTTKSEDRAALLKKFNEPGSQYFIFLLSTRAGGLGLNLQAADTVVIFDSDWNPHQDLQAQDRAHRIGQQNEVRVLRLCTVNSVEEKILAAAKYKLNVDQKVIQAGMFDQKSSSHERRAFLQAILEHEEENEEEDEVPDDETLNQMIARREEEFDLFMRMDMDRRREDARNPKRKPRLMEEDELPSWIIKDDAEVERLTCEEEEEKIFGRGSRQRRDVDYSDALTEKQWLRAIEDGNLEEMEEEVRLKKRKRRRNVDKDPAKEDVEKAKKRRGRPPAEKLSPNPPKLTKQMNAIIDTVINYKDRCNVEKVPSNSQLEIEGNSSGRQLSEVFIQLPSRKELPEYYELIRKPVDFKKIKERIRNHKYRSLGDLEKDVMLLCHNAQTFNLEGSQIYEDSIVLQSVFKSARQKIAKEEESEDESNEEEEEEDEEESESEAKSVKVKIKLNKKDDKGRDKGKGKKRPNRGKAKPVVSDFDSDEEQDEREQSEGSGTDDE
T2 sequence (P51532 whole entry): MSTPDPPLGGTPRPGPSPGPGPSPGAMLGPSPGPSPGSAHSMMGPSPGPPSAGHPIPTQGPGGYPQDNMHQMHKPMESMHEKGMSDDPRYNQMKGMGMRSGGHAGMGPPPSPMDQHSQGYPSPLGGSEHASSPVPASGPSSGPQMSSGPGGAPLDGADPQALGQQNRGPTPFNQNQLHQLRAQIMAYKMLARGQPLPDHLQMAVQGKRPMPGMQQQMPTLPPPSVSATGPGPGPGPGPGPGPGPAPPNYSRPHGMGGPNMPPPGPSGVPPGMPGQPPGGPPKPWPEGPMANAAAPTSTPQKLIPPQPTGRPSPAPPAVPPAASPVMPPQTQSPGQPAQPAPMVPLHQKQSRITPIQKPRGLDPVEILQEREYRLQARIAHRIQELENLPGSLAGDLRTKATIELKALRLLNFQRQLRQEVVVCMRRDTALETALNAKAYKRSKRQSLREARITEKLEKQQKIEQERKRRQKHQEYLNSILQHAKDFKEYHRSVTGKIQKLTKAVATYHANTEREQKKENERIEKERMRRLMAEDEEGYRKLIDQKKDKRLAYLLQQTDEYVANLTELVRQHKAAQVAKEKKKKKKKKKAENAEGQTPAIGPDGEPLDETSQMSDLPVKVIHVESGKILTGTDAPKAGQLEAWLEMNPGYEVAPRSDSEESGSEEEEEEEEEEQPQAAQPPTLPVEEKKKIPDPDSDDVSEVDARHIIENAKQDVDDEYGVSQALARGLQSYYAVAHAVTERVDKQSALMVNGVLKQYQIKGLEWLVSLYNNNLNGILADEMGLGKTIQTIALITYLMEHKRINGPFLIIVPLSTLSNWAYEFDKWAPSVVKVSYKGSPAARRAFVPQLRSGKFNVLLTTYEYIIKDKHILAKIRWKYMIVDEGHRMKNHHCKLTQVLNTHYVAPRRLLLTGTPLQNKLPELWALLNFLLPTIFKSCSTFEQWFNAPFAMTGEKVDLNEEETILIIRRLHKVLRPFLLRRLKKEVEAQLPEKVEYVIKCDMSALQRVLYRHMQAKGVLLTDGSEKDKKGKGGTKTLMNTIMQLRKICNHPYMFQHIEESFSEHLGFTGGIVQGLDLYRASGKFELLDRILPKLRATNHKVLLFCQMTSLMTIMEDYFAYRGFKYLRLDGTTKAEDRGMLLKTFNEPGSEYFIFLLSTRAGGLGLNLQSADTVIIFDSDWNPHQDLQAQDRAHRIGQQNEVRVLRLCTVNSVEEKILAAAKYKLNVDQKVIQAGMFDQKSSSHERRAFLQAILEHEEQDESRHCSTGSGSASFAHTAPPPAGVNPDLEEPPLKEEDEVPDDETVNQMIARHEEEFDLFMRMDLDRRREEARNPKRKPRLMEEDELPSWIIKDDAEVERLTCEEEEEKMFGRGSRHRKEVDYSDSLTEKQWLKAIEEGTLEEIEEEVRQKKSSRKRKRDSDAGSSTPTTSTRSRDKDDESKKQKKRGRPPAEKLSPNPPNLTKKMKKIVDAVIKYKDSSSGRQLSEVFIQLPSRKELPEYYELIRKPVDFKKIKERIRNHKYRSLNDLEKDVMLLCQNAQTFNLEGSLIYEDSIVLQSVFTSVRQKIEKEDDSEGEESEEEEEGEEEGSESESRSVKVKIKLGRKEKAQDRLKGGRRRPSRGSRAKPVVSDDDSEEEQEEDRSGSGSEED

`Nc1nnc(-c2ccccc2O)cc1OCCc1ccc(C(=O)NCCCCCCCCNc2cccc3c2C(=O)N(C2CCC(=O)NC2=O)C3=O)cc1` (centres unmarked) [Compound 44, 4-(2-((3-amino-6-(2-hydroxyphenyl)pyridazin-4-yl)oxy)ethyl)-N-(8-((2-(2,6-dioxopiperidin-3-yl)-1,3-dioxoisoindolin-4-yl)amino)octyl)benzamide]: at HiBiT-BRM, the “BRM HiBit Degradation Maximum (%)” value is “B (“B” indicates maximum degradation ≥50%)” and the DC50 was above 100 nM. In addition, at HiBit-BRG1, the DC50 was above 1000 nM and the Dmax is below 50%.
On to `Cc1ncsc1-c1ccc(CNC(=O)[C@@H]2C[C@@H](O)CN2C(=O)[C@@H](NC(=O)CCN2CCC(OC3CCN(C(=O)c4ccc(CCOc5cc(-c6ccccc6O)nnc5N)cc4)CC3)CC2)C(C)(C)C)cc1` [Compound 202, (2S,4R)-1-((S)-2-(3-(4-((1-(4-(2-((3-amino-6-(2-hydroxyphenyl)pyridazin-4-yl)oxy)ethyl)benzoyl)piperidin-4-yl)oxy)piperidin-1-yl)propanamido)-3,3-dimethylbutanoyl)-4-hydroxy-N-(4-(4-methylthiazol-5-yl)benzyl)pyrrolidine-2-carboxamide], for which, at HiBiT-BRM, the “BRM HiBit Degradation Maximum (%)” value is on record as “B (“B” indicates maximum degradation ≥50%)” and the DC50 was above 1000 nM. Besides, on HiBit-BRG1, the DC50 is above 1000 nM and the Dmax is below 50%.
In the case of `Nc1nnc(-c2ccccc2O)cc1OCCc1ccc(CNC(=O)CCCCOc2cccc3c2CN(C2CCC(=O)NC2=O)C3=O)cc1` (centres unmarked) [Compound 130, N-(4-(2-((3-amino-6-(2-hydroxyphenyl)pyridazin-4-yl)oxy)ethyl)benzyl)-5-((2-(2,6-dioxopiperidin-3-yl)-1-oxoisoindolin-4-yl)oxy)pentanamide], on HiBiT-BRM, the “BRM HiBit Degradation Maximum (%)” value is on record as “C (“C” indicates maximum degradation <50%)” and the DC50 was above 1000 nM. Also, at HiBit-BRG1, the DC50 was above 1000 nM and the Dmax was below 50%.
For the compound `Cc1ncsc1-c1ccc(CNC(=O)[C@@H]2C[C@@H](O)CN2C(=O)[C@@H](NC(=O)CCCCCCCCCNC(=O)c2ccc(CCOc3cc(-c4ccccc4O)nnc3N)cc2)C(C)C)cc1` [Compound 170, (2S,4R)-1-((10-(4-(2-((3-amino-6-(2-hydroxyphenyl)pyridazin-4-yl)oxy)ethyl)benzamido)decanoyl)-L-valyl)-4-hydroxy-N-(4-(4-methylthiazol-5-yl)benzyl)pyrrolidine-2-carboxamide], on HiBiT-BRM, the “BRM HiBit Degradation Maximum (%)” value is “C (“C” indicates maximum degradation <50%)” and the DC50 was above 1000 nM. Moreover, on HiBit-BRG1, the DC50 is above 1000 nM and the Dmax is below 50%.
`Nc1nnc(-c2ccccc2O)cc1OCCc1ccc(CNCCCCCNc2ccc3c(c2)C(=O)N(C2CCC(=O)NC2=O)C3=O)cc1` (centres unmarked) [Compound 117, 5-[[5-([[4-(2-[[3-amino-6-(2-hydroxyphenyl)pyridazin-4-yl]oxy]ethyl)phenyl]methyl]amino)pentyl]amino]-2-(2,6-dioxopiperidin-3-yl)isoindole-1,3-dione]: at HiBiT-BRM, the “BRM HiBit Degradation Maximum (%)” value is recorded as “B (“B” indicates maximum degradation ≥50%)” and the DC50 is above 1000 nM. Moreover, on HiBit-BRG1, the DC50 is above 1000 nM and the Dmax is above 75%.
Regarding `Cc1ncsc1-c1ccc([C@H](C)NC(=O)[C@@H]2C[C@@H](O)CN2C(=O)[C@@H](c2cc(OCCN3CC4(C3)CN(CCC(=O)NCc3ccc(CCOc5cc(-c6ccccc6O)nnc5N)cc3)C4)no2)C(C)C)cc1` [Compound 192, (2S,4R)-1-[(2R)-2-[3-(2-[6-[2-([[4-(2-[[3-amino-6-(2-hydroxyphenyl)pyridazin-4-yl]oxy]ethyl)phenyl]methyl]carbamoyl)ethyl]-2,6-diazaspiro[3.3]heptan-2-yl]ethoxy)-1,2-oxazol-5-yl]-3-methylbutanoyl]-4-hydroxy-N-[(1S)-1-[4-(4-methyl-1,3-thiazol-5-yl)phenyl]ethyl]pyrrolidine-2-carboxamide], at HiBiT-BRM, the “BRM HiBit Degradation Maximum (%)” value was “A (“A” indicates maximum degradation ≥75%)” and the DC50 is above 100 nM. Further, at HiBit-BRG1, the DC50 is above 1000 nM and the Dmax is above 50%.
In the same order, the values of `Nc1nnc(-c2ccccc2O)cc1OCCc1ccc(CNCCCCCNc2cccc3c2C(=O)N(C2CCC(=O)NC2=O)C3=O)cc1` (centres unmarked) [Compound 112, 4-[[5-([[4-(2-[[3-amino-6-(2-hydroxyphenyl)pyridazin-4-yl]oxy]ethyl)phenyl]methyl]amino)pentyl]amino]-2-(2,6-dioxopiperidin-3-yl)isoindole-1,3-dione] are “B (“B” indicates maximum degradation ≥50%)”, above 10 nM, above 1000 nM and above 50%.
On to `Nc1nnc(-c2ccccc2O)cc1OCCc1ccc(C(=O)NCCCCCCC(=O)NCc2ccc(S(=O)(=O)Nc3cccc4c(Cl)c[nH]c34)cc2)cc1` [Compound 13, 7-[[4-(2-[[3-amino-6-(2-hydroxyphenyl)pyridazin-4-yl]oxy]ethyl)phenyl]formamido]-N-([4-[(3-chloro-1H-indol-7-yl)sulfamoyl]phenyl]methyl)heptanamide], for which, on HiBiT-BRM, the “BRM HiBit Degradation Maximum (%)” value is listed as “C (“C” indicates maximum degradation <50%)” and the DC50 was above 1000 nM. Besides, at HiBit-BRG1, the DC50 is above 1000 nM and the Dmax was below 50%.
On to `Cc1ncsc1-c1ccc(CNC(=O)[C@@H]2C[C@@H](O)CN2C(=O)[C@@H](NC(=O)CCCC(=O)NCc2ccc(CCOc3cc(-c4ccccc4O)nnc3N)cc2)C(C)(C)C)cc1` [Compound 34], for which, on HiBiT-BRM, the “BRM HiBit Degradation Maximum (%)” value was “B (“B” indicates maximum degradation ≥50%)” and the DC50 is above 1000 nM. Further, at HiBit-BRG1, the DC50 is above 1000 nM and the Dmax is below 50%.
As to `Cc1ncsc1-c1ccc([C@H](C)NC(=O)[C@@H]2C[C@@H](O)CN2C(=O)[C@@H](NC(=O)CN2CCC(OC3CCN(CCC(=O)NCc4ccc(CCOc5cc(-c6ccccc6O)nnc5N)cc4)CC3)CC2)C(C)(C)C)cc1` [Compound 258, (2S,4R)-1-((S)-2-(2-(4-((1-(3-((4-(2-((3-amino-6-(2-hydroxyphenyl)pyridazin-4-yl)oxy)ethyl)benzyl)amino)-3-oxopropyl)piperidin-4-yl)oxy)piperidin-1-yl)acetamido)-3,3-dimethylbutanoyl)-4-hydroxy-N-((S)-1-(4-(4-methylthiazol-5-yl)phenyl)ethyl)pyrrolidine-2-carboxamide], at HiBiT-BRM, the “BRM HiBit Degradation Maximum (%)” value is “A (“A” indicates maximum degradation ≥75%)” and the DC50 is above 100 nM. On HiBit-BRG1, the DC50 is above 1000 nM and the Dmax is above 50%.
In the same order, the values of `Cc1ncsc1-c1ccc(CNC(=O)[C@@H]2C[C@@H](O)CN2C(=O)[C@@H](NC(=O)COCCOCCOCCOCCOCC(=O)NCc2ccc(CCOc3cc(-c4ccccc4O)nnc3N)cc2)C(C)(C)C)cc1` [Compound 168, N1-(4-(2-((3-amino-6-(2-hydroxyphenyl)pyridazin-4-yl)oxy)ethyl)benzyl)-N17-((S)-1-((2S,4R)-4-hydroxy-2-((4-(4-methylthiazol-5-yl)benzyl)carbamoyl)pyrrolidin-1-yl)-3,3-dimethyl-1-oxobutan-2-yl)-3,6,9,12,15-pentaoxaheptadecanedia] are “C (“C” indicates maximum degradation <50%)”, above 1000 nM, above 1000 nM and below 50%.
In the same order, the values of `Nc1nnc(-c2ccccc2O)cc1OCCc1ccc(CNC(=O)CCOCCOCCNc2ccc3c(c2)C(=O)N(C2CCC(=O)NC2=O)C3=O)cc1` (centres unmarked) [Compound 70, N-[[4-(2-[[3-amino-6-(2-hydroxyphenyl)pyridazin-4-yl]oxy]ethyl)phenyl]methyl]-3-[2-(2-[[2-(2,6-dioxopiperidin-3-yl)-1,3-dioxoisoindol-5-yl]amino]ethoxy)ethoxy]propanamide] are “C (“C” indicates maximum degradation <50%)”, above 1000 nM, above 1000 nM and below 50%.
`Cc1ncsc1-c1ccc([C@H](C)NC(=O)[C@@H]2C[C@@H](O)CN2C(=O)[C@@H](NC(=O)CCN2CCC(OC3CCN(CCC(=O)NCc4ccc(CCOc5cc(-c6ccccc6O)nnc5N)cc4)CC3)CC2)C(C)(C)C)cc1` [Compound 249, (2S,4R)-1-((S)-2-(3-(4-((1-(3-((4-(2-((3-amino-6-(2-hydroxyphenyl)pyridazin-4-yl)oxy)ethyl)benzyl)amino)-3-oxopropyl)piperidin-4-yl)oxy)piperidin-1-yl)propanamido)-3,3-dimethylbutanoyl)-4-hydroxy-N-((S)-1-(4-(4-methylthiazol-5-yl)phenyl)ethyl)pyrrolidine-2-carboxamide]: at HiBiT-BRM, the “BRM HiBit Degradation Maximum (%)” value was “A (“A” indicates maximum degradation ≥75%)” and the DC50 was above 1000 nM. In addition, at HiBit-BRG1, the DC50 was above 1000 nM and the Dmax was below 50%.
With `Nc1nnc(-c2ccccc2O)cc1OCCc1ccc(C(=O)NCCCCCCCCCCCCCCC(=O)NCc2ccc(S(=O)(=O)Nc3cccc4c(Cl)c[nH]c34)cc2)cc1` [Compound 6, 15-[[4-(2-[[3-amino-6-(2-hydroxyphenyl)pyridazin-4-yl]oxy]ethyl)phenyl]formamido]-N-([4-[(3-chloro-1H-indol-7-yl)sulfamoyl]phenyl]methyl)pentadecanamide], on HiBiT-BRM, the “BRM HiBit Degradation Maximum (%)” value is reported as “C (“C” indicates maximum degradation <50%)” and the DC50 was above 1000 nM. Also, at HiBit-BRG1, the DC50 is above 1000 nM and the Dmax was below 50%.
